Reference: patent publication US4886791A, “Soluble derivatives of silybin, a method of preparing them, and pharmaceutical compositions containing them” (priority 1987, dated 1989)
Structures can show the parent of a compound that is named as a salt. Where two headings read alike, the source gives them in different places.

How the values were obtained:
[1] = Anti-radical activity in vitro, free radical scavenging (DPPH method); conditions: for IC50: DPPH method
Experimental: The anti-radical activity of compound Ia was measured "in vitro" by testing the disappearance of the free 1,1-diphenyl-2-picrylhydrazyl (DPPH) radical (J. Pincemail et al., Stud. Org. Chem. 23, 423, 1985).

[2] = test system: liver poisoning by praseodymium; assay: Antihepatotoxic activity, praseodymium test on the rat (oral administration); format: in vivo
Text: (§1) In order to test its pharmacological activity, compound (Ia) has been administered intravenously and orally in liver poisoning tests, such as the praseodymium poisoning test on the rat and the phalloidine poisoning test on the mouse, both tests being widely described in the literature for use in studying the antihepatotoxic effect of silymarin and silybin (Vogel, in "Studies in Organic Chemistry, Vol. 11, Flavonoids and Bioflavonoids, page 461, Elsevier 1982).

[3] = test system: mice subjected to hypobaric anoxia; assay: Hypobaric anoxia: protective effect on survival time of mice subjected to hypoxia (i.p.); format: in vivo, mouse; conditions: for ED50: Mus musculus, ip
Text: Table 5 gives data showing the effect of compound Ia on the survival time of mice subjected to hypobaric anoxia. In this test (M. Nakanishi et al., Life Sciences, 13, 467, 1973), compound Ia was intraperitoneally injected half an hour before the anoxia.

[4] = test system: liver poisoning by praseodymium; assay: Antihepatotoxic activity, praseodymium test on the rat (i.v. administration); format: in vivo
Text: as §1
Silybin 11-phosphate was intravenously administered one hour before the praseodymium (10 mg/kg i.v.).

Rat = conditions: i.v., A. Desplaces et al., 1975; cited from earlier work
Mouse = conditions: i.v., A. Desplaces et al., 1975; cited from earlier work
[5] = test system: poisoning with phalloidine; assay: Antihepatotoxic activity, mouse poisoned with phalloidine (i.v. administration); format: in vivo; conditions: for Death Rate: 10 animals/group
Text: as §1
Silybin dihemisuccinate, when tested at a dose equal to 1/13 of the LD50 i.v. in the mouse, protected only 60% of the mice from death by phalloidine (Table 4).

Acute toxicity, rat = conditions: in vivo, iv
Acute toxicity, mouse = conditions: in vivo, iv
[6] = read-out: IC50 (confidence limits p = 0.95)
[7] = corresponds to mg/kg silybin, read-out: Survival Time ED50, corresponding silybin dose
[8] = half an hour before the anoxia, read-out: Survival Time ED50 (confidence limits p = 0.95)
[9] = corresponds to μM silybin, read-out: IC50, corresponding silybin concentration
[10] = rat, simultaneously with praseodymium

Compound: COc1cc(C2Oc3cc([C@H]4Oc5cc(O)cc(O)c5C(=O)[C@@H]4O)ccc3OC2CO)ccc1O (stereo partly drawn) [Silybin, silybin]
- IC50 [1, 6]: 327 µM
- ALAT, percentage variation relative to the praseodymium group ([2]; rat, 250 mg/kg): +1%
- ASAT, percentage variation relative to the praseodymium group ([2]; rat, 250 mg/kg): -2%
- Serum enzymes ALAT, m ± s.e. ([2]; rat, 250 mg/kg): 3620 ± 795.8 U/L
- Serum enzymes ASAT, m ± s.e. ([2]; rat, 250 mg/kg): 3680.2 ± 885.6 U/L

Compound: COc1cc(C2Oc3cc(C4Oc5cc(O)cc(O)c5C(=O)C4OC(=O)CCC(=O)O)ccc3OC2COC(=O)CCC(=O)O)ccc1O (stereo not drawn) [Silybin dihemisuccinate, silybin dihemisuccinate]
- ED50 [3, 7]: 97.3 mg/kg
- ED50 [3, 8]: 108 mg/kg
- IC50 [1, 9]: 322 µM
- IC50 [1, 6]: 565 µM
- ALAT, percentage variation relative to the praseodymium group ([4]; rat, i.v., 7.5 mg/kg): -21%
- ASAT, percentage variation relative to the praseodymium group ([4]; rat, i.v., 7.5 mg/kg): -11%
- Liver Wt, m ± s.e. ([4]; rat, i.v., 7.5 mg/kg): 12.6 ± 0.5 g
- Liver Wt, percentage variation relative to the praseodymium group ([4]; rat, i.v., 7.5 mg/kg): -3%
- Liver triglycerides, m ± s.e. ([4]; rat, i.v., 7.5 mg/kg): 6692.8 ± 738.3
- Liver triglycerides, percentage variation relative to the praseodymium group ([4]; rat, i.v., 7.5 mg/kg): -18%
- Serum enzymes ALAT, m ± s.e. ([4]; rat, i.v., 7.5 mg/kg): 1366. ± 343.1 U/L
- Serum enzymes ASAT, m ± s.e. ([4]; rat, i.v., 7.5 mg/kg): 1672.0 ± 292.8 U/L
- ALAT, percentage variation relative to the praseodymium group ([4]; rat, i.v., 37.5 mg/kg): +64%
- ASAT, percentage variation relative to the praseodymium group ([4]; rat, i.v., 37.5 mg/kg): +38%
- Liver Wt, m ± s.e. ([4]; rat, i.v., 37.5 mg/kg): 12.6 ± 0.4 g
- Liver Wt, percentage variation relative to the praseodymium group ([4]; rat, i.v., 37.5 mg/kg): +1%
- Liver triglycerides, m ± s.e. ([4]; rat, i.v., 37.5 mg/kg): 7083.9 ± 747.5
- Liver triglycerides, percentage variation relative to the praseodymium group ([4]; rat, i.v., 37.5 mg/kg): -19%
- Serum enzymes ALAT, m ± s.e. ([4]; rat, i.v., 37.5 mg/kg): 1988.3 ± 465.3 U/L
- Serum enzymes ASAT, m ± s.e. ([4]; rat, i.v., 37.5 mg/kg): 2600.0 ± 570.9 U/L
- ALAT, percentage variation relative to the praseodymium group ([4]; rat, i.v., 75 mg/kg): -65%
- ASAT, percentage variation relative to the praseodymium group ([4]; rat, i.v., 75 mg/kg): -53%
- Liver Wt, m ± s.e. ([4]; rat, i.v., 75 mg/kg): 12.1 ± 0.5 g
- Liver Wt, percentage variation relative to the praseodymium group ([4]; rat, i.v., 75 mg/kg): -1%
- Liver triglycerides, m ± s.e. ([4]; rat, i.v., 75 mg/kg): 9221.0 ± 910.4
- Liver triglycerides, percentage variation relative to the praseodymium group ([4]; rat, i.v., 75 mg/kg): +11%
- Serum enzymes ALAT, m ± s.e. ([4]; rat, i.v., 75 mg/kg): 422.9 ± 85.6 U/L
- Serum enzymes ASAT, m ± s.e. ([4]; rat, i.v., 75 mg/kg): 887.0 ± 63.1 U/L
- Activity in the praseodymium test ([4]; rat, i.v., lower doses comparable with those of compound (Ia)): no activity
- Dose for preventing praseodymium poisoning ([4]; rat, i.v., LD50 reported in the literature): 1/12
- LD50 (Rat): 920(1) (906-940) mg/kg
- LD50 (Mouse): 970(1) (931-1010) mg/kg
- Percentage of deaths ([5]; i.v., 75.0 mg/kg): 40%
- Death Rate ([5]; i.v., 75.0 mg/kg): 4
- Mice protected from death by phalloidine ([5]; i.v., dose equal to 1/13 of the LD50 i.v.): 60%
- ALAT, percentage variation relative to the praseodymium group ([2]; rat, 375 mg/kg): -75%
- ASAT, percentage variation relative to the praseodymium group ([2]; rat, 375 mg/kg): -70%
- Serum enzymes ALAT, m ± s.e. ([2]; rat, 375 mg/kg): 886.7 ± 395.1 U/L
- Serum enzymes ASAT, m ± s.e. ([2]; rat, 375 mg/kg): 1118.3 ± 512.0 U/L

Compound: COc1cc(C2Oc3cc(C4Oc5cc(O)cc(O)c5C(=O)C4O)ccc3OC2COP(=O)(O)O)ccc1O (stereo not drawn) [Silybin 11-phosphate (Ia), Silybin 11-phosphate]
- Activity in prolonging the survival time [3]: active in prolonging the survival time
- Activity in prolonging the survival time compared with succinylsilybin [3]: significantly more active than succinylsilybin
- ED50 [3, 7]: 36.3 mg/kg
- ED50 [3, 8]: 45.7 mg/kg
- IC50 [1, 9]: 85 µM
- IC50 [1, 6]: 107 µM
- Activity in destroying free radicals ([1]; in vitro, DPPH): significantly active in destroying free radicals
- Anti-radical activity relative to silybin or succinylsilybin ([1]; more active than either silybin or succinylsilybin): about 3.5 times
- Pharmacological activity compared with silybin dihemisuccinate ([4]; intravenous, liver poisoning tests (praseodymium rat, phalloidine mouse)): much higher pharmacological activity than silybin dihemisuccinate
- ALAT, percentage variation relative to the praseodymium group ([4]; rat, i.v., 6.32 mg/kg): -71%
- ASAT, percentage variation relative to the praseodymium group ([4]; rat, i.v., 6.32 mg/kg): -54%
- Liver Wt, m ± s.e. ([4]; rat, i.v., 6.32 mg/kg): 12.6 ± 0.5 g
- Liver Wt, percentage variation relative to the praseodymium group ([4]; rat, i.v., 6.32 mg/kg): -10%
- Liver triglycerides, m ± s.e. ([4]; rat, i.v., 6.32 mg/kg): 4792.4 ± 1068.8
- Liver triglycerides, percentage variation relative to the praseodymium group ([4]; rat, i.v., 6.32 mg/kg): -41%
- Serum enzymes ALAT, m ± s.e. ([4]; rat, i.v., 6.32 mg/kg): 495.0 ± 244.6 U/L
- Serum enzymes ASAT, m ± s.e. ([4]; rat, i.v., 6.32 mg/kg, 1 h before praseodymium 10 mg/kg i.v.): 877.0 ± 420.5 U/L
- ALAT, percentage variation relative to the praseodymium group ([4]; rat, i.v., 15.8 mg/kg): -97%
- ASAT, percentage variation relative to the praseodymium group ([4]; rat, i.v., 15.8 mg/kg): -95%
- Liver Wt, m ± s.e. ([4]; rat, i.v., 15.8 mg/kg): 8.7 ± 0.2 g
- Liver Wt, percentage variation relative to the praseodymium group ([4]; rat, i.v., 15.8 mg/kg): -30%
- Liver triglycerides, m ± s.e. ([4]; rat, i.v., 15.8 mg/kg): 672.7 ± 100.5
- Liver triglycerides, percentage variation relative to the praseodymium group ([4]; rat, i.v., 15.8 mg/kg): -92%
- Serum enzymes ALAT, m ± s.e. ([4]; rat, i.v., 15.8 mg/kg): 31.3 ± 3.2 U/L
- Serum enzymes ASAT, m ± s.e. ([4]; rat, i.v., 15.8 mg/kg): 90.9 ± 8.9 U/L
- Effect on praseodymium-induced increases ([4]; rat, i.v., dose equal to 1/26 of the LD50): inhibited the increase in activity of the two serum transaminases and the increase in the weight of the liver and the hepatic triglycerides
- Activity in the praseodymium test ([4]; rat, i.v., dose of 1/65 of the LD50): Activity was maintained
- Activity compared with silybin dihemisuccinate in the phalloidine test ([5]; 63 and 126 mg/kg i.v.): markedly superior to silybin dihemisuccinate
- Percentage of deaths ([5]; i.v., 15.8 mg/kg): 0%
- Death Rate ([5]; i.v., 15.8 mg/kg, 1 h before phalloidine 3 mg/kg i.p.): 0
- Protection from death by phalloidine ([5]; i.v., dose equal to 1/15 of the LD50 i.v.): protected all the mice from death
- Antihepatotoxic activity compared with silybin [2]: greater than that of silybin
- ALAT, percentage variation relative to the praseodymium group ([2]; rat, 315 mg/kg): -78%
- ASAT, percentage variation relative to the praseodymium group ([2]; rat, 315 mg/kg): -75%
- Serum enzymes ALAT, m ± s.e. ([2]; rat, 315 mg/kg): 783.3 ± 304.6 U/L
- Serum enzymes ASAT, m ± s.e. ([2]; rat, 315 mg/kg, simultaneously with praseodymium): 931.7 ± 299.0 U/L
- Activity in counteracting the increase in the two serum transaminases compared with silybin [2, 10]: considerably more active than silybin alone
- Activity in counteracting the increase in the two serum transaminases compared with silybin dihemisuccinate [2, 10]: as active as silybin dihemisuccinate

Compound: COc1cc(C2Oc3cc(C4Oc5cc(O)cc(O)c5C(=O)C4O)ccc3OC2COP(=O)(O)O)ccc1O (stereo not drawn) [Silybin 11-phosphate (Ia, sodium salt), sodium salt of silybin 11-phosphate]
- LD50 (Acute toxicity, rat): 415 mg/kg
- LD50 (Acute toxicity, mouse): 235 mg/kg
